Entries after “also recorded” stand apart in the source; their conditions may differ. Read-outs that look alike come from different tables or passages of the source.
Columns and labels:
RXRγ [1] = target: T1, RXRγ (Mus musculus, UniProt P28705); test: RXR binding, RXRγ; conditions: -v- tritiated LGD1069 and tritiated 9-cis retinoic acid
T1 sequence (P28705 1-463): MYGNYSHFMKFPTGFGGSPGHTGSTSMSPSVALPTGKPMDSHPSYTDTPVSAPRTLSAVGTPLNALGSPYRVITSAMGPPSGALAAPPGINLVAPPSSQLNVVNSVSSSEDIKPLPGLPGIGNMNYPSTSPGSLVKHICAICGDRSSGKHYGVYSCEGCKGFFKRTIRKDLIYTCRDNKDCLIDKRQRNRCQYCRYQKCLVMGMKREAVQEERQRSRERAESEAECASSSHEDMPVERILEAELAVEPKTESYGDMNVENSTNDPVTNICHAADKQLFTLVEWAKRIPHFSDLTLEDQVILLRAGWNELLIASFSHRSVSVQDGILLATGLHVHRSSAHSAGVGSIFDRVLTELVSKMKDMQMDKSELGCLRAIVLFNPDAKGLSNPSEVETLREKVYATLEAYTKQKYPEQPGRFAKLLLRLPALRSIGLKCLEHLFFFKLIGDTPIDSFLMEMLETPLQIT
Method: (§1) Non-specific binding was defined as that binding remaining in the presence of 500 nM of the appropriate unlabelled compound. At the end of the incubation period, bound from free ligand were separated. The amount of bound tritiated retinoids was determined by liquid scintillation counting of an aliquot (700 μL) of the supernatant fluid or the hydroxylapatite pellet.
(§2) After correcting for non-specific binding, IC50 values were determined. […] The IC50 value was determined graphically from a log-logit plot of the data. The Kd values were determined by application of the Cheng-Prussof equation to the IC50 values, the labeled ligand concentration and the Kd of the labeled ligand.

RXRα:PPARα heterodimer = target: T2, RXRα:PPARα heterodimer (Homo sapiens, UniProt P19793); test: RXR heterodimer co-transfection assay (RXRα and PPARα, PPARα response element reporter); conditions: for Fold activation: normalized luciferase values at 10−5M divided by values with vehicle
T2 sequence (P19793 1-462): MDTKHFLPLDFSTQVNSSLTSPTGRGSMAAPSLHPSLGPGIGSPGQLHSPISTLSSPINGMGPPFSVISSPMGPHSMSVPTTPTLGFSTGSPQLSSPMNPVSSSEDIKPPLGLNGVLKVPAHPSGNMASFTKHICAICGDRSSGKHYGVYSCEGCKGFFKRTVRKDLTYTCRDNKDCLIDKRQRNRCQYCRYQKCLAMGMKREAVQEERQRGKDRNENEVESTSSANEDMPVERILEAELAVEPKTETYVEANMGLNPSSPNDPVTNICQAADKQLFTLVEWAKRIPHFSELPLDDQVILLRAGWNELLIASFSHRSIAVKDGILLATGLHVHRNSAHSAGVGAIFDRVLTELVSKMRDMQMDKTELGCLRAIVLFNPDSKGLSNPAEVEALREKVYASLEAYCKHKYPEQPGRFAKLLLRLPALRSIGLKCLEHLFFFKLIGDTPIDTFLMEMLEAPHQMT
T2 sequence (Q07869 1-468 partner): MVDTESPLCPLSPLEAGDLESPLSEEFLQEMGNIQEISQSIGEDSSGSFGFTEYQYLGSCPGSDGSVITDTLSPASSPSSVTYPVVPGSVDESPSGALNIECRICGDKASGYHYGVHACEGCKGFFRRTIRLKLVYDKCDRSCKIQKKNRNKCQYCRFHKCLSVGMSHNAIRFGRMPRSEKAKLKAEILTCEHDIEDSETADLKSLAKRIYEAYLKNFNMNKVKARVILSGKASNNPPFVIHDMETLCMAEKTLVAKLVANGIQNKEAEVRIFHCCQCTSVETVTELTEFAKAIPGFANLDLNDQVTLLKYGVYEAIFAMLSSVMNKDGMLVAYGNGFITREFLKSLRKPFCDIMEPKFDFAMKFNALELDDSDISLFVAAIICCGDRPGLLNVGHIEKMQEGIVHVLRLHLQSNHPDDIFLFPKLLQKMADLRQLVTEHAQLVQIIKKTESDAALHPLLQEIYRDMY

RXRα:RARα heterodimer = target: T3, RXRα:RARα heterodimer (Homo sapiens, UniProt P19793); test: Gal4-receptor chimera transactivation assay, RXRα:RARα heterodimer; conditions: for effect on RXRα:RARα heterodimer in combination with TTNPB (in words): combined with the RXR:RAR activator TTNPB, data not shown; for agonist activity on RXRα:RARα heterodimers (in words): compound alone
T3 sequence (P19793 227-458 limits assumed): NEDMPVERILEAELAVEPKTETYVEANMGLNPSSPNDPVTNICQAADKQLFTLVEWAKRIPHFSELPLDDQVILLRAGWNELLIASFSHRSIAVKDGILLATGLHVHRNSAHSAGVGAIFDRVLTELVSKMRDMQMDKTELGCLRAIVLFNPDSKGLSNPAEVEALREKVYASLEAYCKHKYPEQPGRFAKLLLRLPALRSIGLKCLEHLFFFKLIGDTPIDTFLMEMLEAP
T3 sequence (P10276 183-417 partner limits assumed): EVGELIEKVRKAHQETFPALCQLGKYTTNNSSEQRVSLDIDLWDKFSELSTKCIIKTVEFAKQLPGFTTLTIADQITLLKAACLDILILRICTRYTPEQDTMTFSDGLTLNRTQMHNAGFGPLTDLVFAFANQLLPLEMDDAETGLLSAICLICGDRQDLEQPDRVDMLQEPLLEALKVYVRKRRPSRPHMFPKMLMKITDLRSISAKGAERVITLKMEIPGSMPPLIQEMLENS

RXRβ [2] = target: T4, RXRβ (Mus musculus, UniProt P28704); test: RXR binding, RXRβ; conditions: -v- tritiated LGD1069 and tritiated 9-cis retinoic acid
T4 sequence (P28704 1-520): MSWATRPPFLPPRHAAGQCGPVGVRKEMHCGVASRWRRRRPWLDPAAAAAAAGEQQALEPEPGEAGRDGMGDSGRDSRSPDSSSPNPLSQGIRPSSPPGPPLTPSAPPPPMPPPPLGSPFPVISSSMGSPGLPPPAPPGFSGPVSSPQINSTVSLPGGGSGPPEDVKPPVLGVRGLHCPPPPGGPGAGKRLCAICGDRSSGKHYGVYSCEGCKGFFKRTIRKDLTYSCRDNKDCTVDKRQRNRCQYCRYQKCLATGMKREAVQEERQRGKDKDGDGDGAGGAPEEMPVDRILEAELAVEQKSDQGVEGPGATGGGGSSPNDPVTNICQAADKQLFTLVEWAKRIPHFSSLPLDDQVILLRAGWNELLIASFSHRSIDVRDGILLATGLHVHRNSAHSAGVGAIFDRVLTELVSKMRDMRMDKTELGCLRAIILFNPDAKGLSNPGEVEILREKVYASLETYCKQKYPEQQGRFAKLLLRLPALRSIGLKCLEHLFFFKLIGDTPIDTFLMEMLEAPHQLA
Method: as §1, §2

RXRα:RXRα homodimer = target: T5, RXRα:RXRα homodimer (Homo sapiens, UniProt P19793); test: Gal4-receptor chimera transactivation assay, RXR homodimer; conditions: for Fold activation: CV-1 cells, 100 nM LG100268, LGD1069, n.e. = no effect; for Fold activation / Fold Repression: 500 nM Compounds 117, 122, 130, 1 mM Compound 131; for agonist activity on RXR homodimers in the GAL4 transfection assay (in words): compound alone; for antagonist activity on RXR homodimers in the GAL4 transfection assay (in words) / Fold Repression: in combination with either LGD1069 or LG100268
T5 sequence (P19793 227-458 limits assumed): T3 sequence (P19793 227-458 limits assumed)
Method: Briefly, CV-1 cells were transfected in 12 well multi-well plates using 0.1 μg of each receptor and 0.5 μg of reporter per well. Each well was also transfected with 0.5 μg of the β-Gal expression plasmid as an internal control for transfection efficiency. Total plasmid per well was 2 μg made up using the plasmid pGEM. […] Receptor ligand binding domains (LBDs) were fused in-frame downstream to the Gal4 cDNA to produce Gal4-receptor fusion proteins. To express only the receptor LBDs, the LBD was cloned directly downstream to the CMV promoter.
Cells were then washed 2X with PBS and lysed using Promega lysis buffer and assayed for luciferase activity and β-galactosidase activity. All results were normalized against β-Gal. Each set was done in triplicates and each experiment was carried out at least 3 separate times with similar results.

RXRα [3] = target: T6, RXRα (Homo sapiens, UniProt P19793); test: RXR binding, RXRα; conditions: -v- tritiated LGD1069 and tritiated 9-cis retinoic acid
T6 sequence (P19793 1-462): T2 sequence (P19793 1-462)
Method: as §1, §2

RXR:RXR homodimer = target: T7, RXR:RXR homodimer (Homo sapiens, UniProt P19793); test: RXR homodimer co-transfection assay (FIG. 1); conditions: in the presence of known RXR activators (LGD1069, LG100268, 9-cis retinoic acid)
T7 sequence (P19793 1-462): T2 sequence (P19793 1-462)

RXRγ [4] = target: T1, RXRγ; test: RXR homodimer co-transfection assay, antagonist mode, RXRγ; conditions: read-out: RXRγ Potency IC50; antagonist potency in the presence of the known RXR agonist LGD1069; CV-1 cells
RXRβ [5] = target: T4, RXRβ; test: RXR homodimer co-transfection assay, antagonist mode, RXRβ; conditions: read-out: RXRβ Potency IC50; antagonist potency in the presence of the known RXR agonist LGD1069; CV-1 cells
RXRα [6] = target: T6, RXRα; test: RXR homodimer co-transfection assay, antagonist mode, RXRα; conditions: read-out: RXRα Potency IC50; antagonist potency in the presence of the known RXR agonist LGD1069; CV-1 cells
NB4 cells = test: NB4 myeloid leukemic cell differentiation; assay type: cell-based; conditions: Compound 122 1 mM; TTNPB, 9-cis retinoic acid, LG100268 100 nM; FIG. 3
Method: All points were performed in triplicate for each experiment and varied less than 20%. Each experiment was repeated at least three times with similar results.

| Compound | Kd (RXRγ [1]) [nM] | EC50 (RXRα:PPARα heterodimer) [nM] | Fold activation (RXRα:PPARα heterodimer) [fold] | effect on RXRα:RARα heterodimer in combination with TTNPB (in words) (RXRα:RARα heterodimer) | agonist activity on RXRα:RARα heterodimers (in words) (RXRα:RARα heterodimer) | Kd (RXRβ [2]) [nM] | Fold activation (RXRα:RXRα homodimer) | agonist activity on RXR homodimers in the GAL4 transfection assay (in words) (RXRα:RXRα homodimer) | antagonist activity on RXR homodimers in the GAL4 transfection assay (in words) (RXRα:RXRα homodimer) | Fold Repression (RXRα:RXRα homodimer) [fold] | Kd (RXRα [3]) [nM] | antagonism of RXR homodimer transactivation (in words) (RXR:RXR homodimer) | IC50 (RXRγ [4]) [nM] | IC50 (RXRβ [5]) [nM] | EC50 (RXRα:PPARα heterodimer; read-out: EC50 (agonist potency), CV-1 cell transfected with both RXRα and PPARα) [nM] | IC50 (RXRα [6]) [nM] | melting point | Fold Repression (RXRα:RARα heterodimer; CV-1 cells, 500 nM Compound 117, in combination with TTNPB) [fold] | differentiation of NB4 cells (in words) (NB4 cells) |
| --- | --- | --- | --- | --- | --- | --- | --- | --- | --- | --- | --- | --- | --- | --- | --- | --- | --- | --- | --- |
| CC1(C)CCC(C)(C)c2cc3c(cc21)CCC=C3Cc1ccc(C(=O)O)cc1 [Compound 131, 4-(3,4,5,6,7,8-hexahydro-5,5,8,8-tetramethyl-anthracen-1-ylmethyl)benzoic acid] | 107 | 800 | 7 | slight increase in activation | potent agonists | 105 | n.e. | inactive | weak antagonist | 1.3 | 140 | function as antagonists |  |  |  |  |  |  |  |
| 4-[(3-hexyloxy-5,6,7,8-tetrahydro-5,5,8,8-tetramethyl-2-naphthyl)carbonyl]benzoic acid oxime [Compound 114] | 38 |  | 4 |  |  | 12 |  |  |  |  | 9 | function as antagonists | 206 | 197 | 200 | 126 |  |  |  |
| CC1(C)CCC(C)(C)c2cc3c(cc21)CCCN3Cc1ccc(C(=O)O)cc1 [Compound 135, 4-(3,4,6,7,8,9-hexahydro-6,6,9,9-tetramethyl-2H-benzo[g]quinolin-1-ylmethyl)benzoic acid] | 181 |  | 5 |  |  | 155 |  |  |  |  | 163 | function as antagonists |  |  |  |  | 173 to 175 °C |  |  |
| CC1(C)CCC(C)(C)c2cc(C(=NO)c3ccc(C(=O)O)cc3)c(OCc3ccccc3)cc21 [Compound 117, cis-4-[(3-benzyloxy-5,6,7,8-tetrahydro-5,5,8,8-tetramethyl-2-naphthyl)carbonyl]benzoic acid oxime] | 17 | 900 | 9 | weak repressor | inactive | 17 | n.e. | inactive | moderate antagonist | 1.5 | 3 | function as antagonists |  |  |  |  | 199 to 205 °C (dec.) | 1.4 |  |
| CCCCCCCOc1c(\C(C)=C/C=C/C(C)=C/C(=O)O)cc(C(C)C)cc1C(C)C [Compound 147, (2E, 4E, 6Z)-7-(3,5-diisopropyl-2-n-heptyloxyphenyl)-3-methylocta-2,4,6-trienoic acid] | 6 |  |  |  |  | 8 |  |  |  |  | 3 | especially potent antagonist |  |  |  |  |  |  |  |
| CC1=C(/C=C/C(C)=C\C=C\C(C)=C\C(=O)O)C(C)(C)CCC1 [9-cis retinoic acid] |  |  |  |  |  |  |  |  |  |  |  |  |  |  |  |  |  |  | stimulate NB4 cells to differentiate |
| CCCOc1cc2c(cc1\C(C)=C/C=C/C(C)=C/C(=O)O)C(C)(C)CCC2(C)C [Compound 122, (2E, 4E, 6Z)-7-[3-propoxy-5,5,8,8-tetramethyl-5,6,7,8-tetrahydro-2-naphthalen-2-yl]-3-methylocta-2,4,6-trienoic acid] | 33 |  |  |  |  | 29 |  |  |  |  |  |  |  |  |  |  |  |  | stimulate NB4 cells to differentiate; also recorded: equally, if not more effective in promoting differentiation of NB4 cells |

— patent publication US6545049B1, “Dimer-selective RXR modulators and methods for their use” (Ligand Pharmaceuticals Incorporated, priority 1995, dated 2003)
